Earlier results as cited in patent publication US20040197891A1, “Removal of plasmin(ogen) from protein solutions” (priority 2001, published 2004).
Like-named read-outs stand apart in the source and are kept apart here.

Experiments:
[1] = system: fibrinolytic activity of plasma
[2] = plasma that has been heparinized oral blood

| SMILES | antifibrinolytic activity compared with EACA (plasmin(ogen)) | antifibrinolytic potency (plasmin(ogen)) | inhibition (anti-fibrinolytic activity) [1, 2] [%] | inhibition (anti-fibrinolytic activity) ([1]; urokinase-stimulated plasma) [%] |
| --- | --- | --- | --- | --- |
| N=C(N)c1ccc(N)cc1 [PAMBA, p-amino benzamidine] | about three | – | – | – |
| NCCCC[C@H](N)C(=O)O [lysine] | – | very low | – | – |
| NC[C@H]1CC[C@H](C(=O)O)CC1 [tranexamic acid] | – | – | 39 | 91 |
| NCCCCCC(=O)O [ε-amino-caproic acid, ε-amino caproic acid] | – | – | 65 | 98 |
